# From patent publication US6608082B1, “Treatment of erectile dysfunction using isoquinoline compound melanocortin receptor ligands” (Lion Bioscience AG, priority 1998, dated 2003)
# Read-outs that look alike come from different tables or passages of the source.
# Experiments:
# MCR-4 = target: T1, MCR-4 (Homo sapiens, UniProt P32245); experiment: Melanocortin receptor binding assay, competition with 125I-HP 467, HEK 293 cells expressing hMCR-4; conditions: inhibition of binding of 125I-HP 467, HEK 293 cells expressing MCR-4; for IC50: read-out: MC-4 IC50
# T1 construct: expressed in transfected cells; host or cells: HEK 293
# T1 sequence (P32245 whole entry): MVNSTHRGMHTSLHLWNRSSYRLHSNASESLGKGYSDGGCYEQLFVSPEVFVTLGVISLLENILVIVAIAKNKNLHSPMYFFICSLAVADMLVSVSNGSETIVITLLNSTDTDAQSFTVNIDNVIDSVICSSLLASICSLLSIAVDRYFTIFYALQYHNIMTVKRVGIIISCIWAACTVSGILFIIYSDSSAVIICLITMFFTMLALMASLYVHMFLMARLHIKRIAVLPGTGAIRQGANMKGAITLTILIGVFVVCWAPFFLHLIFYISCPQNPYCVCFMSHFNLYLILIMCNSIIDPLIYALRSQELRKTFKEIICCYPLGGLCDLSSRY
# Method in brief: (§1)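 Test compounds compete on intact HEK 293 cells carrying hMCR-1 (2×10^4 per tube) or hMCR-4 (4×10^3 per tube), suspended in PBS, 10% calf serum, 1 mM CaCl2.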
# MCR-1 = target: T2, MCR-1 (Homo sapiens, UniProt Q01726); experiment: Melanocortin receptor binding assay, competition with 125I-HP 467, HEK 293 cells expressing hMCR-1; conditions: inhibition of binding of 125I-HP 467, HEK 293 cells expressing MCR-1; for IC50: read-out: MC-1 IC50
# T2 construct: expressed in transfected cells; host or cells: HEK 293
# T2 sequence (Q01726 whole entry): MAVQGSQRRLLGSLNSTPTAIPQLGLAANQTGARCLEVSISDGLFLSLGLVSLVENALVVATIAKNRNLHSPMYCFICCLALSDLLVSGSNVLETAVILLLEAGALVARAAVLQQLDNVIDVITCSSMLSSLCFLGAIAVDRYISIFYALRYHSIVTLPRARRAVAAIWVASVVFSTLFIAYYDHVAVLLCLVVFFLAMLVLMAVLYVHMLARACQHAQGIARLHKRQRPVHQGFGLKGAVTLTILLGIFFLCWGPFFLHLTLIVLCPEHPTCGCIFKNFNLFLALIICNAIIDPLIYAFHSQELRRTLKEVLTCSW
# Method in brief: as §1
SMILES,IC50 (MCR-4; TRG 2414 library) [µM],IC50 (MCR-1; TRG 2414 library) [µM],other results
COc1ccc(CCNCC2c3ccccc3CN(CCCCC(N)CN)C2c2ccc(Oc3ccccc3)cc2)cc1 (stereo not shown) [TRG 2414-145],3.47,2.05,–
COc1ccc(CCNCC2c3ccccc3CN(CCCCC(CN)NCc3ccccc3)C2c2ccc(Oc3ccccc3)cc2)cc1 (stereo not shown) [TRG 2414-147],8.5,1.63,–
COc1ccc(CCNCC2c3ccccc3CN(CCCCC(CN)NCC(C)c3ccc(CC(C)C)cc3)C2c2ccc(Oc3ccccc3)cc2)cc1 (stereo not shown) [TRG 2414-148],–,–,MC-4 IC50 (MCR-4; TRG 2414 library): no fit; MC-1 IC50 (MCR-1; TRG 2414 library): no fit
NCC(N)CCCCN1Cc2ccccc2C(CNCc2ccccc2)C1c1ccc(Oc2ccccc2)cc1 (stereo not shown) [TRG 2414-149],2.69,2.86,–
NCC(CCCCN1Cc2ccccc2C(CNCc2ccccc2)C1c1ccc(Oc2ccccc2)cc1)NCCc1ccccc1 (stereo not shown) [TRG 2414-150],16.3,9.42,–
NCC(CCCCN1Cc2ccccc2C(CNCc2ccccc2)C1c1ccc(Oc2ccccc2)cc1)NCc1ccccc1 (stereo not shown) [TRG 2414-151],14.7,1.81,–
CC(C)Cc1ccc(C(C)CNC(CN)CCCCN2Cc3ccccc3C(CNCc3ccccc3)C2c2ccc(Oc3ccccc3)cc2)cc1 (stereo not shown) [TRG 2414-152],–,–,MC-4 IC50 (MCR-4; TRG 2414 library): no fit; MC-1 IC50 (MCR-1; TRG 2414 library): no fit
NCC(N)CCCCN1Cc2ccccc2C(CNC2CCCCCC2)C1c1ccc(Oc2ccccc2)cc1 (stereo not shown) [TRG 2414-153],4.09,0.772,–
NCC(CCCCN1Cc2ccccc2C(CNC2CCCCCC2)C1c1ccc(Oc2ccccc2)cc1)NCCc1ccccc1 (stereo not shown) [TRG 2414-154],7.52,4.85,–
NCC(CCCCN1Cc2ccccc2C(CNC2CCCCCC2)C1c1ccc(Oc2ccccc2)cc1)NCc1ccccc1 (stereo not shown) [TRG 2414-155],8.94,2.03,–
CC(C)Cc1ccc(C(C)CNC(CN)CCCCN2Cc3ccccc3C(CNC3CCCCCC3)C2c2ccc(Oc3ccccc3)cc2)cc1 (stereo not shown) [TRG 2414-156],–,18.6,MC-4 IC50 (MCR-4; TRG 2414 library): no fit
NCC(N)CCCCN1Cc2ccccc2C(CNC2CCCCC2)C1c1ccc(Oc2ccccc2)cc1 (stereo not shown) [TRG 2414-157],4.11,1.11,–
NCC(CCCCN1Cc2ccccc2C(CNC2CCCCC2)C1c1ccc(Oc2ccccc2)cc1)NCc1ccccc1 (stereo not shown) [TRG 2414-159],9.82,1.4,–
CC(C)Cc1ccc(C(C)CNC(CN)CCCCN2Cc3ccccc3C(CNC3CCCCC3)C2c2ccc(Oc3ccccc3)cc2)cc1 (stereo not shown) [TRG 2414-160],–,17.5,MC-4 IC50 (MCR-4; TRG 2414 library): no fit
CCCOc1ccc(C2C(CNCc3ccccc3C(F)(F)F)c3ccccc3CN2CCCCC(N)CN)cc1 (stereo not shown) [TRG 2414-161],11,7.98,–
CCCOc1ccc(C2C(CNCc3ccccc3C(F)(F)F)c3ccccc3CN2CCCCC(CN)NCc2ccccc2)cc1 (stereo not shown) [TRG 2414-163],22.6,2.73,–
CCCOc1ccc(C2C(CNCc3ccccc3C(F)(F)F)c3ccccc3CN2CCCCC(CN)NCC(C)c2ccc(CC(C)C)cc2)cc1 (stereo not shown) [TRG 2414-164],–,–,MC-4 IC50 (MCR-4; TRG 2414 library): no fit; MC-1 IC50 (MCR-1; TRG 2414 library): no fit
CCCOc1ccc(C2C(CNCc3ccccc3OCC)c3ccccc3CN2CCCCC(CN)NCCc2ccccc2)cc1 (stereo not shown) [TRG 2414-166],8.58,6.82,–
CCCOc1ccc(C2C(CNCc3ccccc3OCC)c3ccccc3CN2CCCCC(CN)NCc2ccccc2)cc1 (stereo not shown) [TRG 2414-167],7.03,2.16,–
CCCOc1ccc(C2C(CNCc3ccccc3OCC)c3ccccc3CN2CCCCC(CN)NCC(C)c2ccc(CC(C)C)cc2)cc1 (stereo not shown) [TRG 2414-168],44.4,21.8,–
CCCOc1ccc(C2C(CNCCc3ccccc3OC)c3ccccc3CN2CCCCC(N)CN)cc1 (stereo not shown) [TRG 2414-169],5.34,0.518,–
CCCOc1ccc(C2C(CNCCc3ccccc3OC)c3ccccc3CN2CCCCC(CN)NCCc2ccccc2)cc1 (stereo not shown) [TRG 2414-170],7.34,1.77,–

SMILES,IC50 (MCR-4; TRG 2414 library) [µM],IC50 (MCR-1; TRG 2414 library) [µM],other results
CCCOc1ccc(C2C(CNCCc3ccccc3OC)c3ccccc3CN2CCCCC(CN)NCc2ccccc2)cc1 (stereo not shown) [TRG 2414-171],4.8,1.1,–
CCCOc1ccc(C2C(CNCCc3ccccc3OC)c3ccccc3CN2CCCCC(CN)NCC(C)c2ccc(CC(C)C)cc2)cc1 (stereo not shown) [TRG 2414-172],39.6,15.7,–
CCCOc1ccc(C2C(CNCCc3cccc(Cl)c3)c3ccccc3CN2CCCCC(N)CN)cc1 (stereo not shown) [TRG 2414-173],4.22,1.96,–
CCCOc1ccc(C2C(CNCCc3cccc(Cl)c3)c3ccccc3CN2CCCCC(CN)NCc2ccccc2)cc1 (stereo not shown) [TRG 2414-175],6.08,4.14,–
CCCOc1ccc(C2C(CNCCc3cccc(Cl)c3)c3ccccc3CN2CCCCC(CN)NCC(C)c2ccc(CC(C)C)cc2)cc1 (stereo not shown) [TRG 2414-176],–,21.9,MC-4 IC50 (MCR-4; TRG 2414 library): no fit
CCCOc1ccc(C2C(CNCc3cccc(OC)c3)c3ccccc3CN2CCCCC(CN)NCCc2ccccc2)cc1 (stereo not shown) [TRG 2414-178],8.13,2.18,–
CCCOc1ccc(C2C(CNCc3cccc(OC)c3)c3ccccc3CN2CCCCC(CN)NCc2ccccc2)cc1 (stereo not shown) [TRG 2414-179],5.48,0.998,–
CCCOc1ccc(C2C(CNCc3ccc(OC)cc3)c3ccccc3CN2CCCCC(N)CN)cc1 (stereo not shown) [TRG 2414-181],6.83,0.468,–
CCCOc1ccc(C2C(CNCc3ccc(OC)cc3)c3ccccc3CN2CCCCC(CN)NCCc2ccccc2)cc1 (stereo not shown) [TRG 2414-182],4.11,1.48,–
CCCOc1ccc(C2C(CNCc3ccc(OC)cc3)c3ccccc3CN2CCCCC(CN)NCc2ccccc2)cc1 (stereo not shown) [TRG 2414-183],4.95,1.09,–
CCCOc1ccc(C2C(CNCc3ccc(OC)cc3)c3ccccc3CN2CCCCC(CN)NCC(C)c2ccc(CC(C)C)cc2)cc1 (stereo not shown) [TRG 2414-184],27.9,17,–
CCCCNc1ccc(C2C(CO)c3ccccc3CN2CCCC(CN)NCCC2CCCCC2)cc1 (stereo not shown) [TRG 2415-1],–,–,IC50 (MCR-4): 5.04 µM; IC50 (MCR-1): 1.93 µM
NCC(CCCN1Cc2ccccc2C(CO)C1c1ccc(O)cc1)NCCC1CCCCC1 (stereo not shown) [TRG 2415-2],–,–,IC50 (MCR-4): 0.94 µM; IC50 (MCR-1): 2.24 µM
CCOc1ccc(C2C(CO)c3ccccc3CN2CCCC(CN)NCCC2CCCCC2)cc1 (stereo not shown) [TRG 2415-3],–,–,IC50 (MCR-4): 2.38 µM; IC50 (MCR-1): 1.44 µM
CC(C)Oc1ccc(C2C(CO)c3ccccc3CN2CCCC(CN)NCCC2CCCCC2)cc1 (stereo not shown) [TRG 2415-5],–,–,IC50 (MCR-4): 0.96 µM; IC50 (MCR-1): 2.52 µM
CCCCOc1ccc(C2C(CO)c3ccccc3CN2CCCC(CN)NCCC2CCCCC2)cc1 (stereo not shown) [TRG 2415-6],–,–,IC50 (MCR-4): 5 µM; IC50 (MCR-1): 2.39 µM
CCc1ccc(C2C(CO)c3ccccc3CN2CCCC(CN)NCCC2CCCCC2)cc1 (stereo not shown) [TRG 2415-7],–,–,IC50 (MCR-4): 2.13 µM; IC50 (MCR-1): 4.8 µM
CCCCCc1ccc(C2C(CO)c3ccccc3CN2CCCC(CN)NCCC2CCCCC2)cc1 (stereo not shown) [TRG 2415-8],–,–,IC50 (MCR-4): 13.8 µM; IC50 (MCR-1): 6.21 µM
NCC(CCCN1Cc2ccccc2C(CN)C1c1ccc(O)cc1)NCCC1CCCCC1 (stereo not shown) [TRG 2415-9],–,–,IC50 (MCR-4): 1.95 µM; IC50 (MCR-1): 3 µM
CCOc1ccc(C2C(CN)c3ccccc3CN2CCCC(CN)NCCC2CCCCC2)cc1 (stereo not shown) [TRG 2415-10],–,–,IC50 (MCR-4): 1.76 µM; IC50 (MCR-1): 0.46 µM
CCCOc1ccc(C2C(CN)c3ccccc3CN2CCCC(CN)NCCC2CCCCC2)cc1 (stereo not shown) [TRG 2415-11],–,–,IC50 (MCR-4): 1.52 µM; IC50 (MCR-1): 0.441 µM
CCCCOc1ccc(C2C(CN)c3ccccc3CN2CCCC(CN)NCCC2CCCCC2)cc1 (stereo not shown) [TRG 2415-12],–,–,IC50 (MCR-4): 3.89 µM; IC50 (MCR-1): 0.677 µM
